Each structure is given as a SMILES string.

Results on 40 molecules are retold here after patent publication US10258602B2 (Ocera Therapeutics, Inc., priority 2007, dated 2019).

human growth hormone secretagogue receptor (hGHS-R1a), sequence (Q92847 whole entry): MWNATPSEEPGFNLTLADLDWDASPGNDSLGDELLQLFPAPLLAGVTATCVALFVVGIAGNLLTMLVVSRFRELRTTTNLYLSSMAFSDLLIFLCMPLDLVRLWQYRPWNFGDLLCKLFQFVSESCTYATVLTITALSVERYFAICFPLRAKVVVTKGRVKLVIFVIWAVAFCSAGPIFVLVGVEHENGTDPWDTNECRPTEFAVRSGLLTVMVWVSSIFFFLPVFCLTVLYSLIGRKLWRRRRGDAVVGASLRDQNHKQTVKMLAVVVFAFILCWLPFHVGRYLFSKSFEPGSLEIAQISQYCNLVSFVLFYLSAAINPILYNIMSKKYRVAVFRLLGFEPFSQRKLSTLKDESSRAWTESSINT

This assay addresses human growth hormone secretagogue receptor (hGHS-R1a) (Homo sapiens, UniProt Q92847). Kind of assay: Competitive radioligand binding assay (ghrelin receptor), standard method A. The conditions noted are these: binding activity at the human ghrelin receptor, standard method A. From the text: A competitive binding assay at the human growth hormone secretagogue receptor (hGHS-R1a) can be carried out analogously to assays described in the literature. (Bednarek, M. A.; et al. J. Med. Chem. 2000, 43, 4370-4376; Palucki, B. L.; et al. Bioorg. Med. Chem. Lett. […], 11, 1955-1957.) See also U.S. patent application Ser. Nos. 11/149,512 and 11/149,731. Binding activity at the gherlin receptor for representative compounds of the present invention is shown in the Examples below.
For the molecule `C[C@@H]1CN[C@@H](C2CC2)C(=O)N(C)[C@H](C)C(=O)N[C@H](Cc2ccc(F)c(F)c2)C(=O)NCCCc2ccccc2O1` [Compound 1040], the inhibitory constant (Ki) (in general, the dissociation constant of the complex between target and ligand, obtained from inhibition or displacement) is no more than 100 nM.
Next, `C[C@@H]1CCc2ccccc2O[C@H](C)CN[C@@H](C2CC2)C(=O)N(C)[C@H](C)C(=O)N[C@H](Cc2ccc(F)cc2)C(=O)N1` [Compound 1010]: no more than 10 nM; `C[C@@H]1C(=O)N[C@H](Cc2ccccc2)C(=O)NCCCc2ccc(F)cc2OCCN[C@@H](C2CC2)C(=O)N1C` [Compound 865]: no more than 100 nM.
With `CC(C)C[C@H]1NC(=O)[C@@H](C)N(C)C(=O)[C@H](C2CC2)NCCOc2ccccc2CC[C@@H](C)NC1=O` [Compound 1086], the inhibition constant Ki is no more than 100 nM.
With `C[C@@H]1C(=O)N[C@H](Cc2ccc(O)cc2)C(=O)NCCCc2ncccc2OCCN[C@@H](C2CC2)C(=O)N1C` [Compound 988], the Ki is no more than 100 nM.
As for `C[C@@H]1C(=O)N[C@H](Cc2ccc(F)cc2)C(=O)NCCCc2ccc(F)c(F)c2OCCN[C@@H](C2CC2)C(=O)N1C` [Compound 1100], the Ki was no more than 10 nM.
Regarding `C[C@@H]1CN[C@@H](C2CC2)C(=O)N(C)[C@H](C)C(=O)N[C@H](Cc2c(F)c(F)c(F)c(F)c2F)C(=O)NCCCc2ccccc2O1` [Compound 1042], the inhibition constant Ki was no more than 100 nM.
Next, `C[C@@H]1CN[C@@H](C2CC2)C(=O)N(C)[C@H](C)C(=O)N[C@H](C2CCCCC2)C(=O)NCCCc2ccccc2O1` [Compound 1046]: no more than 100 nM; `C[C@@H]1CN[C@@H](C2CC2)C(=O)N(C)[C@H](C)C(=O)N[C@H](Cc2ccc(F)cc2)C(=O)NCCCc2cc(F)c(F)cc2O1` [Compound 950]: no more than 500 nM.
In turn, `C[C@@H]1CN[C@@H](C2CC2)C(=O)N(C)[C@H](C)C(=O)N[C@H](Cc2ccccc2)C(=O)NCCCc2ccc(F)cc2O1` [Compound 876] yielded a Ki of no more than 100 nM.
`CC[C@H](C)[C@@H]1NC[C@@H](C)Oc2c(F)cccc2CCCNC(=O)[C@@H](Cc2ccc(O)cc2)NC(=O)[C@@H](C)N(C)C1=O` [Compound 994] displayed an inhibition constant (Ki) of no more than 100 nM.
On to `C[C@@H]1CN[C@@H](C2CC2)C(=O)N(C)[C@H](C)C(=O)N[C@H]([C@@H](C)c2ccc(O)cc2)C(=O)NCCCc2ncccc2O1` [Compound 1082], for which the Ki was no more than 500 nM.
Next, `CC1CNC(C2CC2)C(=O)N(C)C(C)C(=O)NC(CC2CCCC2)C(=O)NCCCC2CCCCC2O1` (mixture of isomers) [Compound 1114]: no more than 1 nM; `CC[C@H](C)[C@@H]1NC[C@@H](C)Oc2c(F)cccc2CCCNC(=O)[C@@H](Cc2cccnc2)NC(=O)[C@@H](C)N(C)C1=O` [Compound 974]: no more than 100 nM.
Regarding `C[C@@H]1C(=O)N[C@H](Cc2ccc(F)cc2)C(=O)NCCCc2ccccc2OC(C)(C)CN[C@@H](C2CC2)C(=O)N1C` [Compound 1003], the Ki is no more than 100 nM.
For `C[C@@H]1C(=O)N[C@H](Cc2ccccc2)C(=O)NCCCc2ccncc2OCCN[C@@H](C2CC2)C(=O)N1C` [Compound 1031], the Ki was no more than 100 nM.
In turn, `CC(C)C[C@H]1NC(=O)[C@@H](C)N(C)C(=O)[C@H](C2CC2)NCCOc2cnccc2CCCNC1=O` [Compound 1021] came in with a Ki greater than 500 nM.
In turn, `C[C@@H]1CN[C@@H](C2CC2)C(=O)N(C)[C@H](C)C(=O)N[C@H](Cc2ccc(F)cc2)C(=O)NCCCc2c(F)cccc2O1` [Compound 937] came in with an inhibition constant (Ki) of no more than 500 nM.
With `CC1C(=O)NC(Cc2ccc(O)c(F)c2)C(=O)NCCCc2ncccc2OCCNC(C2CC2)C(=O)N1C` (mixture of isomers) [Compound 1078] the figure was no more than 100 nM; with `CC[C@H](C)[C@@H]1NC[C@@H](C)Oc2cccnc2CCCNC(=O)[C@@H](CC(C)C)NC(=O)[C@@H](C)N(C)C1=O` [Compound 1000], no more than 500 nM; with `CCC[C@@H]1NC[C@@H](C)Oc2ccccc2CCCNC(=O)[C@@H](Cc2ccc(Cl)cc2)NC(=O)[C@@H](C)N(C)C1=O` [Compound 863], no more than 100 nM.
Next, `C[C@@H]1CN[C@@H](C2CC2)C(=O)N(C)[C@H](C)C(=O)N[C@H](Cc2ccc(C(F)(F)F)cc2)C(=O)NCCCc2ccccc2O1` [Compound 1038]: no more than 100 nM; `C[C@@H]1C(=O)N[C@H]([C@@H](C)c2ccc(O)cc2)C(=O)NCCCc2ncccc2OCCN[C@@H](C2CC2)C(=O)N1C` [Compound 1080]: no more than 100 nM; `CC[C@H](C)[C@@H]1NC[C@@H](C)Oc2ccccc2CCCNC(=O)[C@@H](Cc2ccc(O)cc2)NC(=O)[C@@H](C)N(C)C1=O` [Compound 993]: no more than 100 nM.
`CC[C@H](C)[C@@H]1NCCOc2cnccc2CCCNC(=O)[C@@H](CC(C)C)NC(=O)[C@@H](C)N(C)C1=O` [Compound 1022] gave a Ki of no more than 500 nM.
Regarding `CC(C)CC1NC(=O)C(C)N(C)C(=O)C(C2CC2)NCCOC2CCCCC2CCCNC1=O` (stereo not shown) [Compound 1106], the inhibition constant Ki is no more than 100 nM.
Molecule `CC(C)C[C@H]1NC(=O)[C@@H](C)N(C)C(=O)[C@H](C2CCCCC2)NC[C@@H](C)Oc2ccccc2CCCNC1=O` [Compound 1099] yielded an inhibition constant (Ki) of no more than 1 nM.
For `CC(C)[C@@H]1NC[C@@H](C)Oc2ccccc2CCCNC(=O)[C@@H](Cc2ccccc2)NC(=O)[C@@H](C)N(C)C1=O` [Compound 871], the Ki is no more than 500 nM.
Molecule `CC1C(=O)NC(Cc2ccc(O)cc2)C(=O)NCCCc2ccc(F)cc2OCCNC(C2CCCCC2)C(=O)N1C` (stereo not shown) [Compound 1113] came in with an inhibitory constant (Ki) of no more than 1 nM.
Turning to `CC[C@H](C)[C@@H]1NCCOc2cccnc2CCCNC(=O)[C@@H](CC(C)C)NC(=O)[C@@H](C)N(C)C1=O` [Compound 987], the Ki was no more than 500 nM.
As for `C[C@H]1CNC(=O)[C@@H](Cc2ccc(F)cc2)NC(=O)[C@@H](C)N(C)C(=O)[C@H](C2CC2)NC[C@@H](C)Oc2ccccc2C1` [Compound 1005], the Ki was no more than 100 nM.
Next, `CC1CNC(C2CC2)C(=O)N(C)C(C)C(=O)NC(CC2CCCC2)C(=O)NCCCc2ccccc2O1` (mixture of isomers) [Compound 1047]: no more than 100 nM; `CC(C)[C@@H]1NC[C@@H](C)Oc2ccccc2CCCNC(=O)[C@@H](Cc2ccc(F)cc2)NC(=O)[C@@H](C)N(C)C1=O` [Compound 857]: no more than 500 nM; `C[C@@H]1C(=O)N[C@H](Cc2ccc(Cl)cc2)C(=O)NCCCc2ccc(F)cc2OCCN[C@@H](C2CC2)C(=O)N1C` [Compound 864]: no more than 10 nM.
The molecule `C[C@@H]1C(=O)N[C@H](Cc2ccc(F)cc2)C(=O)NCCCc2cccc3c2O[C@@H](CC3)CN[C@@H](C2CC2)C(=O)N1C` [Compound 1016] gave an inhibition constant Ki of no more than 100 nM.
Next, `CC(C)CC1NC(=O)C(C)N(C)C(=O)C(C2CC2)NCCOc2cccc(F)c2CCCNC1=O` (stereo not shown) [Compound 1111]: no more than 100 nM.
Molecule `CC[C@H](C)[C@@H]1NCCOc2cccnc2CCCNC(=O)[C@@H](Cc2ccc(O)cc2)NC(=O)[C@@H](C)N(C)C1=O` [Compound 992] displayed an inhibitory constant (Ki) of no more than 100 nM.
Next, `C[C@@H]1CN[C@@H](C2CC2)C(=O)N(C)[C@H](C)C(=O)N[C@H]([C@@H](C)c2ccc(F)cc2)C(=O)NCCCc2ccccc2O1` [Compound 1034]: no more than 100 nM.
For `C[C@@H]1C(=O)N[C@H](Cc2ccccc2Cl)C(=O)NCCCc2ccccc2OCCN[C@@H](C2CC2)C(=O)N1C` [Compound 872], the Ki is no more than 10 nM.
On to `CO[C@H](C)[C@@H]1NC[C@@H](C)Oc2cccnc2CCCNC(=O)[C@@H](Cc2ccc(F)cc2)NC(=O)[C@@H](C)N(C)C1=O` [Compound 1032], for which the inhibition constant (Ki) was no more than 500 nM.
